Among the test systems are 786-0 renal; BT-549 breast; CCRF-CEM leukemia; HCC-2998 colon; HCT-116 colon; HOP-62 NSCLC; HT29 colon; MDA-MB-231 breast; SNB-75 CNS; UACC-257 melanoma.
What all share (test): NCI tumour cell line growth inhibition, 48 h

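Following 48 hours of exposure in 96-well plates, responses at five concentrations were used to interpolate endpoints linearly. TGI: concentration producing complete growth inhibition.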 Where a SMILES comes first, the peptide text is derived from it. [ ]: non-standard residue; d: D form. The star is where a group is joined. X28 = COC1=CC(=O)N(C(=O)[C@@H](O*)C(C)C)[C@H]1Cc1ccccc1; NMeL = CN[C@@H](CC(C)C)C(=O)O; Cbz = O=C(OCc1ccccc1)*

Regarding `C/C=C/COc1cc(NC(=S)c2ccoc2C)ccc1OC`, the TGI in the experiment on 786-0 renal, in the experiment with BT-549 breast, in the experiment on CCRF-CEM leukemia, in the experiment on HCC-2998 colon, with HCT-116 colon and with HOP-62 NSCLC was more than 100 µM in each case. In addition, the TGI in the experiment on HT29 colon, with MDA-MB-231 breast, in the experiment on SNB-75 CNS and in the experiment with UACC-257 melanoma was more than 100 µM throughout.

Turning to `COC1=CC(=O)N(C(=O)[C@@H](OC(=O)[C@@H]2CCCN2C(=O)[C@@H]2CCCN2C(=O)[C@H](CC(C)C)N(C)C(=O)[C@@H](NC(=O)[C@@H](NC(=O)OCc2ccccc2)C(C)C)C(C)C)C(C)C)[C@H]1Cc1ccccc1` (Cbz-VV[NMeL]PP-X28), the TGI in the experiment with 786-0 renal, with BT-549 breast, in the experiment with CCRF-CEM leukemia, in the experiment with HCC-2998 colon, with HCT-116 colon and in the experiment with HOP-62 NSCLC was more than 100 µM in each case. Also, the TGI in the experiment with HT29 colon was more than 100 µM; in the experiment on MDA-MB-231 breast, 61.9 µM; in the experiment with SNB-75 CNS it was 9.27 µM; with UACC-257 melanoma, more than 100 µM.

In the case of `CCC(=O)n1c(=O)n(-c2ccc([N+](=O)[O-])cc2)c(=O)n1C(=O)CC`, the TGI in the experiment with 786-0 renal, in the experiment on BT-549 breast, in the experiment with CCRF-CEM leukemia, in the experiment on HCC-2998 colon, in the experiment with HCT-116 colon and with HOP-62 NSCLC was more than 100 µM in each case. The TGI with HT29 colon, in the experiment with MDA-MB-231 breast, with SNB-75 CNS and in the experiment with UACC-257 melanoma was more than 100 µM in each case.

Consider `CN(C)C(=O)CO/N=C1/C(c2c(O)[nH]c3ccccc23)=Nc2ccccc21`, for which the TGI in the experiment with 786-0 renal, with BT-549 breast, with CCRF-CEM leukemia, in the experiment with HCC-2998 colon, in the experiment with HCT-116 colon and in the experiment with HOP-62 NSCLC was more than 100 µM in each case. Besides, the TGI in the experiment on HT29 colon is more than 100 µM; with MDA-MB-231 breast it was more than 100 µM; in the experiment with SNB-75 CNS, 89.8 µM; in the experiment on UACC-257 melanoma, more than 100 µM.

With `CC1(C)CC(=O)C2=C(C1)N(c1ccccc1)C1(O)C=CC(=O)C3=C(O)c4ccccc4C(=O)C321` (stereo not given), the TGI with 786-0 renal is more than 100 µM; in the experiment on BT-549 breast, 67.9 µM; in the experiment with CCRF-CEM leukemia, more than 100 µM; with HCC-2998 colon, 78.2 µM; in the experiment with HCT-116 colon, more than 100 µM; with HOP-62 NSCLC, more than 100 µM. In addition, the TGI in the experiment with HT29 colon is 54 µM; in the experiment with MDA-MB-231 breast, more than 100 µM; in the experiment with SNB-75 CNS, 48.6 µM; in the experiment with UACC-257 melanoma, more than 100 µM.

`CC(=O)O[C@@H]1CC2[C@@H](CCC3Cc4nc5c(nc4C[C@@]32C)CC2CC[C@@H]3C(CC[C@@]4(C)C3CC[C@@H]4C(C)CCCC(C)C)[C@@]2(C)C5)C2C[C@@H]3OC4(CCC(C)CO4)C(C)[C@@H]3[C@]21C` (stereo not given in full): the TGI in the experiment with 786-0 renal, in the experiment on BT-549 breast, in the experiment with CCRF-CEM leukemia, in the experiment on HCC-2998 colon, in the experiment with HCT-116 colon and in the experiment with HOP-62 NSCLC was more than 100 µM throughout. Also, the TGI is more than 100 µM in the experiment with HT29 colon, more than 100 µM in the experiment with MDA-MB-231 breast, 37.2 µM with SNB-75 CNS and more than 100 µM in the experiment with UACC-257 melanoma.

`CC1=NN(c2cccc(Cl)c2)C2(C1)SCC(=O)N2c1nc2ccccc2s1` (stereo not given): the TGI with 786-0 renal was 56.1 µM; in the experiment with BT-549 breast, more than 100 µM; with CCRF-CEM leukemia, 62.6 µM; with HCC-2998 colon, 38.5 µM; in the experiment with HCT-116 colon, 36.7 µM; in the experiment on HOP-62 NSCLC, 58.3 µM. The TGI in the experiment on HT29 colon was 63.8 µM; in the experiment on MDA-MB-231 breast it was 40.3 µM; in the experiment with SNB-75 CNS, 43.5 µM; with UACC-257 melanoma it was 57.7 µM.

On to `CN(C)Cc1cc(C(=O)/C=C/c2c(F)cccc2Cl)cc(CN(C)C)c1O`, for which the TGI worked out at 19.5 µM in the experiment on 786-0 renal; 21.8 µM in the experiment on BT-549 breast; 24.1 µM in the experiment on CCRF-CEM leukemia; 27 µM in the experiment with HCC-2998 colon; 16.2 µM in the experiment with HCT-116 colon; 26.7 µM in the experiment with HOP-62 NSCLC. Moreover, the TGI with HT29 colon is 23.7 µM; in the experiment on MDA-MB-231 breast, 27.5 µM; in the experiment with SNB-75 CNS, 21.8 µM; in the experiment on UACC-257 melanoma it was 24.6 µM.

On to `Nc1nc(SCc2ccccc2[N+](=O)[O-])c2[nH]cnc2n1`, for which the TGI in the experiment with 786-0 renal was more than 100 µM; in the experiment with BT-549 breast it was more than 100 µM; in the experiment on CCRF-CEM leukemia, more than 94.5 µM; with HCC-2998 colon, 97.4 µM; in the experiment on HCT-116 colon, more than 100 µM; in the experiment with HOP-62 NSCLC, more than 100 µM. Besides, the TGI in the experiment with HT29 colon was more than 100 µM; with MDA-MB-231 breast, more than 100 µM; in the experiment on SNB-75 CNS it was more than 70.4 µM; in the experiment with UACC-257 melanoma, more than 75.9 µM.

These data come from PubChem BioAssay (NCI).
